Results published in patent US10227344B2, “CK2 inhibitors, compositions and methods thereof” (Polaris Pharmaceuticals, Inc., priority 2016, dated 2019).

Key:
Assay type in all cases: cell-based
[1] = system: PC3; assay: Cancer cell panel, cell viability (resazurin): Prostate, PC3; settings: 72 hours, labelled drug combined with Example 3
Procedure: (§1) Cells were plated in 96-well plates and treated for 72 hours with a serially diluted CK2 inhibitor or anti-cancer drug or their combination. The suspension cell lines were treated right after plating, while the adherent cells were allowed to attach overnight prior to the start of the treatment.
(§2) Cell viability was determined by adding resazurin to cell cultures and measuring fluorescence with a plate reader. Relative cell viability was calculated by dividing the cell viability signal from a test sample by that of a non-treated control. […] Bliss Independence and Highest Single Agent models were used to determine if there is synergy, additivity or antagonism between the CK2 inhibitor and an anti-cancer drug.

[2] = system: SKOV-3; assay: Cancer cell panel, cell viability (resazurin): Ovarian, SKOV-3; settings: SKOV-3 (Ovarian), 72 hours; labelled drug combined with Example 3
[3] = system: OVCAR-3; assay: Cancer cell panel, cell viability (resazurin): Ovarian, OVCAR-3; settings: OVCAR-3 (Ovarian), 72 hours; labelled drug combined with Example 3
[4] = system: A2780; assay: Cancer cell panel, cell viability (resazurin): Ovarian, A2780; settings: 72 hours, labelled drug combined with Example 3
Procedure: as §1, §2

[5] = system: Caov-3; assay: Cancer cell panel, cell viability (resazurin): Ovarian, Caov-3; settings: Caov-3 (Ovarian), 72 hours; labelled drug combined with Example 3
[6] = system: Mia-Paca-2; assay: Cancer cell panel, cell viability (resazurin): Pancreatic, Mia-Paca-2; settings: Mia-Paca-2 (Pancreatic), 72 hours; labelled drug combined with Example 3
[7] = system: Panc-1; assay: Cancer cell panel, cell viability (resazurin): Pancreatic, Panc-1; settings: Panc-1 (Pancreatic), 72 hours; labelled drug combined with Example 3
Procedure: as §1, §2

[8] = system: BxPC3; assay: Cancer cell panel, cell viability (resazurin): Pancreatic, BxPC3; settings: 72 hours, labelled drug combined with Example 3
[9] = system: HCT116; assay: Cancer cell panel, cell viability (resazurin): Colon, HCT116; settings: 72 hours, labelled drug combined with Example 3
[10] = system: Colo205; assay: Cancer cell panel, cell viability (resazurin): Colon, Colo205; settings: 72 hours, labelled drug combined with Example 3
[11] = system: LoVo; assay: Cancer cell panel, cell viability (resazurin): Colon, LoVo; settings: 72 hours, labelled drug combined with Example 3
[12] = system: DLD-1; assay: Cancer cell panel, cell viability (resazurin): Colon, DLD-1; settings: DLD-1 (Colon), 72 hours; labelled drug combined with Example 3
[13] = system: H1299; assay: Cancer cell panel, cell viability (resazurin): NSCLC, H1299; settings: 72 hours, labelled drug combined with Example 3
[14] = system: H460; assay: Cancer cell panel, cell viability (resazurin): NSCLC, H460; settings: 72 hours, labelled drug combined with Example 3
[15] = system: H1975; assay: Cancer cell panel, cell viability (resazurin): NSCLC, H1975; settings: 72 hours, labelled drug combined with Example 3
[16] = system: H23; assay: Cancer cell panel, cell viability (resazurin): NSCLC, H23; settings: 72 hours, labelled drug combined with Example 3
[17] = system: H2122; assay: Cancer cell panel, cell viability (resazurin): NSCLC, H2122; settings: 72 hours, labelled drug combined with Example 3
[18] = system: SkBr-3; assay: Cancer cell panel, cell viability (resazurin): Breast, SkBr-3; settings: SkBr-3 (Breast), 72 hours; labelled drug combined with Example 3
[19] = system: MDA-MB-453; assay: Cancer cell panel, cell viability (resazurin): Breast, MDA-MB-453; settings: MDA-MB-453 (Breast), 72 hours; labelled drug combined with Example 3
[20] = system: MDA-MB-231; assay: Cancer cell panel, cell viability (resazurin): Breast, MDA-MB-231; settings: MDA-MB-231 (Breast), 72 hours; labelled drug combined with Example 3
Procedure: as §1, §2

[21] = system: MDA-MB-157; assay: Cancer cell panel, cell viability (resazurin): Breast, MDA-MB-157; settings: MDA-MB-157 (Breast), 72 hours; labelled drug combined with Example 3
Procedure: as §1, §2

[22] = system: BT-20; assay: Cancer cell panel, cell viability (resazurin): Breast, BT-20; settings: BT-20 (Breast), 72 hours; labelled drug combined with Example 3
[23] = system: BT-474; assay: Cancer cell panel, cell viability (resazurin): Breast, BT-474; settings: BT-474 (Breast), 72 hours; labelled drug combined with Example 3
[24] = system: ZR-75-1; assay: Cancer cell panel, cell viability (resazurin): Breast, ZR-75-1; settings: ZR-75-1 (Breast), 72 hours; labelled drug combined with Example 3
Procedure: as §1, §2

[25] = system: T47D; assay: Cancer cell panel, cell viability (resazurin): Breast, T47D; settings: 72 hours, labelled drug combined with Example 3
Procedure: as §1, §2

[26] = system: ACHN; assay: Cancer cell panel, cell viability (resazurin): Renal, ACHN; settings: 72 hours, labelled drug combined with Example 3
[27] = system: Caki-1; assay: Cancer cell panel, cell viability (resazurin): Renal, Caki-1; settings: Caki-1 (Renal), 72 hours; labelled drug combined with Example 3
Procedure: as §1, §2

[28] = system: A375; assay: Cancer cell panel, cell viability (resazurin): Melanoma, A375; settings: 72 hours, labelled drug combined with Example 3
[29] = system: SK-MEL-3; assay: Cancer cell panel, cell viability (resazurin): Melanoma, SK-MEL-3; settings: SK-MEL-3 (Melanoma), 72 hours; labelled drug combined with Example 3
[30] = system: SK-MEL-24; assay: Cancer cell panel, cell viability (resazurin): Melanoma, SK-MEL-24; settings: SK-MEL-24 (Melanoma), 72 hours; labelled drug combined with Example 3
[31] = system: WM-115; assay: Cancer cell panel, cell viability (resazurin): Melanoma, WM-115; settings: WM-115 (Melanoma), 72 hours; labelled drug combined with Example 3
[32] = system: RPMI8226; assay: Cancer cell panel, cell viability (resazurin): multiple myeloma, RPMI8226; settings: 72 hours, labelled drug combined with Example 3
Procedure: as §1, §2

[33] = system: Raji; assay: Cancer cell panel, cell viability (resazurin): Burkitt's Lymphoma, Raji; settings: 72 hours, labelled drug combined with Example 3
Procedure: as §1, §2

[34] = system: Daudi; assay: Cancer cell panel, cell viability (resazurin): Burkitt's Lymphoma, Daudi; settings: 72 hours, labelled drug combined with Example 3
[35] = system: K562; assay: Cancer cell panel, cell viability (resazurin): Leukemia, K562; settings: 72 hours, labelled drug combined with Example 3
[36] = system: HL60; assay: Cancer cell panel, cell viability (resazurin): Leukemia, HL60; settings: 72 hours, labelled drug combined with Example 3
[37] = system: EOL-1; assay: Cancer cell panel, cell viability (resazurin): Leukemia, EOL-1; settings: EOL-1 (Leukemia), 72 hours; labelled drug combined with Example 3
[38] = system: MOLT4; assay: Cancer cell panel, cell viability (resazurin): Leukemia, MOLT4; settings: 72 hours, labelled drug combined with Example 3

COc1cccc2c1C(=O)c1c(O)c3c(c(O)c1C2=O)C[C@@](O)(C(=O)CO)C[C@@H]3O[C@H]1C[C@H](N)[C@H](O)[C@H](C)O1 [Doxorubicin, doxorubicin]
synergy, additivity or antagonism of the combination of Example 3 with the anti-cancer drug [1]: + (Additive relative to each agent alone (CI = 0.9-1 by Bliss Independence Model and <0.9 by Highest Single Agent Model))
synergy, additivity or antagonism of the combination of Example 3 with the anti-cancer drug [2]: + (Additive relative to each agent alone (CI = 0.9-1 by Bliss Independence Model and <0.9 by Highest Single Agent Model))
synergy, additivity or antagonism of the combination of Example 3 with the anti-cancer drug [3]: + + (Slight synergy relative to each agent alone (CI = 0.75-0.9 by Bliss Independence Model))
synergy, additivity or antagonism of the combination of Example 3 with the anti-cancer drug [4]: + (Additive relative to each agent alone (CI = 0.9-1 by Bliss Independence Model and <0.9 by Highest Single Agent Model))
synergy, additivity or antagonism of the combination of Example 3 with the anti-cancer drug [5]: + (Additive relative to each agent alone (CI = 0.9-1 by Bliss Independence Model and <0.9 by Highest Single Agent Model))
synergy, additivity or antagonism of the combination of Example 3 with the anti-cancer drug [6]: + (Additive relative to each agent alone (CI = 0.9-1 by Bliss Independence Model and <0.9 by Highest Single Agent Model))
synergy, additivity or antagonism of the combination of Example 3 with the anti-cancer drug [7]: + + (Slight synergy relative to each agent alone (CI = 0.75-0.9 by Bliss Independence Model))
synergy, additivity or antagonism of the combination of Example 3 with the anti-cancer drug [8]: + + (Slight synergy relative to each agent alone (CI = 0.75-0.9 by Bliss Independence Model))
synergy, additivity or antagonism of the combination of Example 3 with the anti-cancer drug [9]: + + (Slight synergy relative to each agent alone (CI = 0.75-0.9 by Bliss Independence Model))
synergy, additivity or antagonism of the combination of Example 3 with the anti-cancer drug [10]: + + (Slight synergy relative to each agent alone (CI = 0.75-0.9 by Bliss Independence Model))
synergy, additivity or antagonism of the combination of Example 3 with the anti-cancer drug [11]: + (Additive relative to each agent alone (CI = 0.9-1 by Bliss Independence Model and <0.9 by Highest Single Agent Model))
synergy, additivity or antagonism of the combination of Example 3 with the anti-cancer drug [12]: + + (Slight synergy relative to each agent alone (CI = 0.75-0.9 by Bliss Independence Model))
synergy, additivity or antagonism of the combination of Example 3 with the anti-cancer drug [13]: + (Additive relative to each agent alone (CI = 0.9-1 by Bliss Independence Model and <0.9 by Highest Single Agent Model))
synergy, additivity or antagonism of the combination of Example 3 with the anti-cancer drug [14]: + + (Slight synergy relative to each agent alone (CI = 0.75-0.9 by Bliss Independence Model))
synergy, additivity or antagonism of the combination of Example 3 with the anti-cancer drug [15]: + (Additive relative to each agent alone (CI = 0.9-1 by Bliss Independence Model and <0.9 by Highest Single Agent Model))
synergy, additivity or antagonism of the combination of Example 3 with the anti-cancer drug [16]: + + (Slight synergy relative to each agent alone (CI = 0.75-0.9 by Bliss Independence Model))
synergy, additivity or antagonism of the combination of Example 3 with the anti-cancer drug [17]: + + (Slight synergy relative to each agent alone (CI = 0.75-0.9 by Bliss Independence Model))
synergy, additivity or antagonism of the combination of Example 3 with the anti-cancer drug [18]: + (Additive relative to each agent alone (CI = 0.9-1 by Bliss Independence Model and <0.9 by Highest Single Agent Model))
synergy, additivity or antagonism of the combination of Example 3 with the anti-cancer drug [19]: + + + (Synergy relative to each agent alone (CI = 0.4-0.74 by Bliss Independence Model))
synergy, additivity or antagonism of the combination of Example 3 with the anti-cancer drug [20]: + (Additive relative to each agent alone (CI = 0.9-1 by Bliss Independence Model and <0.9 by Highest Single Agent Model))
synergy, additivity or antagonism of the combination of Example 3 with the anti-cancer drug [21]: + + + (Synergy relative to each agent alone (CI = 0.4-0.74 by Bliss Independence Model))
synergy, additivity or antagonism of the combination of Example 3 with the anti-cancer drug [22]: + + (Slight synergy relative to each agent alone (CI = 0.75-0.9 by Bliss Independence Model))
synergy, additivity or antagonism of the combination of Example 3 with the anti-cancer drug [23]: + + (Slight synergy relative to each agent alone (CI = 0.75-0.9 by Bliss Independence Model))
synergy, additivity or antagonism of the combination of Example 3 with the anti-cancer drug [24]: + + (Slight synergy relative to each agent alone (CI = 0.75-0.9 by Bliss Independence Model))
synergy, additivity or antagonism of the combination of Example 3 with the anti-cancer drug [25]: + (Additive relative to each agent alone (CI = 0.9-1 by Bliss Independence Model and <0.9 by Highest Single Agent Model))
synergy, additivity or antagonism of the combination of Example 3 with the anti-cancer drug [26]: + (Additive relative to each agent alone (CI = 0.9-1 by Bliss Independence Model and <0.9 by Highest Single Agent Model))
synergy, additivity or antagonism of the combination of Example 3 with the anti-cancer drug [27]: + (Additive relative to each agent alone (CI = 0.9-1 by Bliss Independence Model and <0.9 by Highest Single Agent Model))
synergy, additivity or antagonism of the combination of Example 3 with the anti-cancer drug [28]: + (Additive relative to each agent alone (CI = 0.9-1 by Bliss Independence Model and <0.9 by Highest Single Agent Model))
synergy, additivity or antagonism of the combination of Example 3 with the anti-cancer drug [29]: + + (Slight synergy relative to each agent alone (CI = 0.75-0.9 by Bliss Independence Model))
synergy, additivity or antagonism of the combination of Example 3 with the anti-cancer drug [30]: + (Additive relative to each agent alone (CI = 0.9-1 by Bliss Independence Model and <0.9 by Highest Single Agent Model))
synergy, additivity or antagonism of the combination of Example 3 with the anti-cancer drug [31]: + + + (Synergy relative to each agent alone (CI = 0.4-0.74 by Bliss Independence Model))
synergy, additivity or antagonism of the combination of Example 3 with the anti-cancer drug [32]: + + + (Synergy relative to each agent alone (CI = 0.4-0.74 by Bliss Independence Model))
synergy, additivity or antagonism of the combination of Example 3 with the anti-cancer drug [33]: + + (Slight synergy relative to each agent alone (CI = 0.75-0.9 by Bliss Independence Model))
synergy, additivity or antagonism of the combination of Example 3 with the anti-cancer drug [34]: + (Additive relative to each agent alone (CI = 0.9-1 by Bliss Independence Model and <0.9 by Highest Single Agent Model))
synergy, additivity or antagonism of the combination of Example 3 with the anti-cancer drug [35]: + (Additive relative to each agent alone (CI = 0.9-1 by Bliss Independence Model and <0.9 by Highest Single Agent Model))
synergy, additivity or antagonism of the combination of Example 3 with the anti-cancer drug [36]: + (Additive relative to each agent alone (CI = 0.9-1 by Bliss Independence Model and <0.9 by Highest Single Agent Model))
synergy, additivity or antagonism of the combination of Example 3 with the anti-cancer drug [37]: + + (Slight synergy relative to each agent alone (CI = 0.75-0.9 by Bliss Independence Model))
synergy, additivity or antagonism of the combination of Example 3 with the anti-cancer drug [38]: + + + (Synergy relative to each agent alone (CI = 0.4-0.74 by Bliss Independence Model))
